Measured values from patent US8247573B2, “Substituted N-(2-mercaptopyridin-3-yl)amides as KCNQ2/3 modulators” (Gruenenthal GmbH, priority 2009, dated 2012).

Target: T1, KCNQ2/3 channels (Homo sapiens, UniProt O43525+O43526)
T1 construct: expressed in transfected cells; host or cells: CHO-K1
Test: Fluorescence assay using a voltage-sensitive dye (fluorimetry)
Assay type: cell-based
Conditions: CHO-K1 cells expressing KCNQ2/3; for EC50: agonistic activity; for Emax: relative to retigabine = 100%, negative values = antagonistic, read-out: Fluorimetry % efficacy (I/EC50, retigabine = 100%)
Method: Pharmacological Experiments Fluorescence Assay Using a Voltage-Sensitive Dye
Human CHO-K1 cells expressing KCNQ2/3 channels are cultivated adherently at 37° C., 5% CO2 and 95% humidity in cell culture bottles (e.g. 80 cm^2 TC flasks, Nunc) with DMEM-high glucose (Sigma Aldrich, D7777) including 10% FCS (PAN Biotech, e.g. 3302-P270521) or alternatively MEM Alpha Medium (1×, liquid, Invitrogen, #22571), 10% foetal calf serum (FCS) (Invitrogen, #10270-106, heat-inactivated) and the necessary selection antibiotics.
Before being seeded out for the measurements, the cells are washed with a 1×DPBS buffer without Ca^2+/Mg^2+ (e.g. Invitrogen, #14190-094) and detached from the bottom of the culture vessel by means of Accutase (PAA Laboratories, #L11-007) (incubation with Accutase for 15 min at 37° C.). The cell count then present is determined using a CASY™ cell counter (TCC model, Schärfe System) in order subsequently to apply 20,000 to 30,000 cells/well/100 μl of the described nutrient medium, depending on density optimisation for the individual cell line, to 96-well measuring plates of the Corning™ CellBIND™ type (flat clear-bottom black polystyrene microplates, #3340). Incubation is then carried out for one hour at room temperature, without gassing or adjusting the humidity, followed by incubation for 24 hours at 37° C., 5% CO2 and 95% humidity.
The voltage-sensitive fluorescent dye from the Membrane Potential Assay Kit (Red™ bulk format part R8123 for FLIPR, MDS Analytical Technologies™) is prepared by dissolving the contents of a vessel of Membrane Potential Assay Kit Red Component A in 200 ml of extracellular buffer (ES buffer, 120 mM NaCl, 1 mM KCl, 10 mM HEPES, 2 mM CaCl2, 2 mM MgCl2, 10 mM glucose; pH 7.4). After removal of the nutrient medium, the cells are washed with 200 μl of ES buffer, then covered with a layer of 100 μl of the dye solution prepared above and incubated for 45 min at room temperature with exclusion of light.
The fluorescence measurements are carried out with a BMG Labtech FLUOstar™, BMG Labtech NOVOstar™ or BMG Labtech POLARstar™ instrument (525 nm excitation, 560 nm emission, bottom-read mode). After incubation of the dye, 50 μl of the substances to be tested in the desired concentrations, or 50 μl of ES buffer for control purposes, are introduced into separate cavities of the measuring plate and incubated for 30 min at room temperature whilst being shielded from light. The fluorescence intensity of the dye is then measured for 5 min and the fluorescence value F1 of each well is thus determined at a given, constant time. 15 μl of a […] KCl solution […] are then added to each well. The change in fluorescence is subsequently measured until all relevant measured values have been obtained (mainly […]). At a given time after KCl application, a fluorescence value F2 is determined, in this case at the time of the fluorescence peak.
For calculation, the fluorescence intensity F2 is compared with the fluorescence intensity F1, and the agonistic activity of the target compound on the potassium channel is determined therefrom. F2 and F1 are calculated as follows: […]
In order to determine whether a substance has an agonistic activity,
[formula] is determined by adding to the reaction batch only the buffer solution instead of the substance to be tested, determining the value F1K of the fluorescence intensity, adding the potassium ions as described above and measuring a value F2K of the fluorescence intensity. Then F2K and F1K are calculated as follows: […]
A substance has an agonistic activity on the potassium channel if
Independently of the comparison of
[formula] it is also possible to conclude that a target compound has an agonistic activity if an increase in
[formula] is to be observed as the dosage of the target compound increases.
Calculations of EC50 values are carried out with the aid of Prism v4.0 software (GraphPad Softwares™).

EC50 [µM] | Emax [%] | IC50 (antagonistic activity) [µM] | Structure (SMILES)
1.02 | 101 |  | O=C(Cc1ccccn1)Nc1cccnc1SCCS(=O)(=O)c1cccc(C(F)(F)F)c1 [Example 60, 2-Pyridin-2-yl-N-[2-[2-[[3-(trifluoromethyl)phenyl]sulfonyl]-ethylsulfanyl]-pyridin-3-yl]acetamide]
0.469 | 129 |  | O=C(Nc1cccnc1SCCS(=O)(=O)c1ccccc1)c1ccc(F)c(F)c1 [Example 5, N-[2-[2-(Benzenesulfonyl)-ethylsulfanyl]-pyridin-3-yl]-3,4-difluorobenzamide]
0.277 | 152 |  | O=C(CCC1CCCC1)Nc1cccnc1SCCS(=O)(=O)c1cccc(C(F)(F)F)c1 [Example 28, 3-Cyclopentyl-N-[2-[2-[[3-(trifluoromethyl)phenyl]sulfonyl]-ethylsulfanyl]-pyridin-3-yl]propionamide]
0.265 | 95 |  | O=C(Nc1cccnc1SCCS(=O)(=O)c1cccc(C(F)(F)F)c1)c1cccc(O)c1 [Example 47, 3-Hydroxy-N-[2-[2-[[3-(trifluoromethyl)phenyl]sulfonyl]-ethylsulfanyl]-pyridin-3-yl]benzamide]
 | 55 |  | O=C(Nc1cccnc1SCCS(=O)(=O)c1ccccc1)c1ccccc1 [Example 4, N-[2-[2-(Benzenesulfonyl)-ethylsulfanyl]-pyridin-3-yl]benzamide]
0.184 | 176 |  | CC(C)(C)CC(=O)Nc1cccnc1SCCCc1ccc(F)cc1 [Example 66, N-[2-[3-(4-Fluorophenyl)-propylsulfanyl]-pyridin-3-yl]-3,3-dimethyl butyramide]
0.083 | 152 |  | O=C(Cc1cccs1)Nc1cccnc1SCCSc1ccccc1 [Example 21, N-[2-(2-Phenylsulfanyl-ethylsulfanyl)-pyridin-3-yl]-2-thiophen-2-yl acetamide]
 | -68 | 0.322 | Cc1cc(C)cc(C(C)C(=O)Nc2cccnc2SCCS(=O)(=O)c2ccccc2)c1 (stereo not shown) [Example 8, N-[2-[2-(Benzenesulfonyl)-ethylsulfanyl]-pyridin-3-yl]-2-(3,5-dimethylphenyl)propionamide]

Further lines, the compound ahead of its results:

Structure (SMILES) | EC50 [µM] | Emax [%] | IC50 (antagonistic activity) [µM]
CC(C)(C)CC(=O)Nc1cccnc1SCCSc1ccc(F)cc1 [Example 61, N-[2-[2-[(4-Fluorophenyl)sulfanyl]-ethylsulfanyl]-pyridin-3-yl]-3,3-dimethyl butyramide] | 0.0275 | 129 | 
O=C(Cc1cccs1)Nc1cccnc1SCCCc1ccccc1 [Example 33, N-[2-(3-Phenyl-propylsulfanyl)-pyridin-3-yl]-2-thiophen-2-yl acetamide] | 0.141 | 106 | 
O=C(Cc1cccs1)Nc1cccnc1SCCSc1cccc(C(F)(F)F)c1 [Example 20, 2-Thiophen-2-yl-N-[2-[2-[[3-(trifluoromethyl)phenyl]sulfanyl]-ethylsulfanyl]-pyridin-3-yl]acetamide] | 0.18 | 97 | 
O=C(Cc1cccc(O)c1)Nc1cccnc1SCCS(=O)(=O)c1cccc(C(F)(F)F)c1 [Example 37, 2-(3-Hydroxyphenyl)-N-[2-[2-[[3-(trifluoromethyl)phenyl]sulfonyl]-ethylsulfanyl]-pyridin-3-yl]acetamide] |  | 31 | 
O=C1CCCC(CC(=O)Nc2cccnc2SCCS(=O)(=O)c2cccc(C(F)(F)F)c2)C1 (stereo not shown) [Example 55, 2-(3-Oxocyclohexyl)-N-[2-[2-[[3-(trifluoromethyl)phenyl]sulfonyl]-ethylsulfanyl]-pyridin-3-yl]acetamide] | 3.6 | 84.8 | 
O=C(CC1CCCCC1)Nc1cccnc1SCCSc1ccccc1 [Example 44, 2-Cyclohexyl-N-[2-(2-phenylsulfanyl-ethylsulfanyl)-pyridin-3-yl]acetamide] | 0.153 | 80 | 
O=C(Cc1ccccc1O)Nc1cccnc1SCCS(=O)(=O)c1cccc(C(F)(F)F)c1 [Example 12, 2-(2-Hydroxyphenyl)-N-[2-[2-[[3-(trifluoromethyl)phenyl]sulfonyl]-ethylsulfanyl]-pyridin-3-yl]acetamide] | 0.168 | 141 | 
